“Also recorded” adds a separate entry of the source.
What was measured:
Assay type in all cases: physicochemical
[1] = Approximate aqueous solubility of salts/co-crystals (visual, solvent addition method); details: water; for solubility: estimated visually, solvent addition method
Description: (§1) A weighed sample was treated with aliquots of the test solvent at room temperature. The mixture was sonicated between additions to facilitate dissolution. Complete dissolution of the test material was determined by visual inspection. Solubility was estimated based on the total solvent used to provide complete dissolution. Some samples were then heated and observed visually for complete dissolution. The actual solubility may be greater than the value calculated because of the use of solvent aliquots that were too large or due to a slow rate of dissolution. […] If complete dissolution was achieved as a result of only one aliquot addition, the solubility is expressed as “greater than.”

[2] = Deliquescence of salts/co-crystals during exposure to 75% RH; details: ambient temperature, 3 day exposure; for Observation (deliquescence): visual
Description: The salts identified from the salt/co-crystal screen of Compound I (see section 4 above) were assessed visually for deliquescence during exposure to 75% RH at ambient temperature (Table 5). […] The materials from these experiments were recovered and re-analyzed by XRPD to determine if changes in solid form occurred.

[3] = XRPD analysis of remaining solids from aqueous solubility assessments; details: solids recovered from mother liquor of aqueous solubility assessment
Excerpt: Compound I ethylenediamine A+B disproportionated, as peaks similar to those observed for Compound I free acid Material C were observed.

[4] = Solubility of Compound I sodium salt forms in solvents and binary solvent systems
Description: as §1

[5] = Dynamic vapor sorption/desorption (DVS)
Description: Moisture sorption/desorption data were collected on a VTI SGA-100 Vapor Sorption Analyzer. NaCl and PVP were used as calibration standards. Samples were not dried prior to analysis. Sorption and desorption data were collected over a range from 5% to 95% RH at 10% RH increments under a nitrogen purge. The equilibrium criterion used for analysis was less than 0.0100% weight change in 5 minutes with a maximum equilibration time of 3 hours. Data were not corrected for the initial moisture content of the samples.

[6] = Slurry experiments (form stability); details: for relative stability of the form (in words): at the conditions evaluated
Description: Solutions were prepared by adding enough solids to a given solvent so that excess solids were present. The mixture was then agitated in a sealed vial at either ambient or an elevated temperature. After a given amount of time, the solids were isolated for analysis.
The formation and stability of solid forms of the sodium salt of Compound I was further evaluated via slurry experiments. The slurries were formed by combining Compound I sodium Pattern A and a solvent, and allowing the slurry to equilibrate at room temperature. If a free flowing slurry was not achieved, an additional amount of the respective solvent was added before the room temperature equilibration step. All slurries were isolated via centrifuge filtration after five days and twelve days of equilibration. The solids were analyzed by XRPD to check for pattern conversion (Table 13).

[7] = Stability at elevated temperatures (XRPD, HPLC); details: for HPLC: after storage at 60 ° C. (time point not given)
Description: The stability of Compound I sodium Patterns A, C, and D and Form B, at about 60° C. was evaluated. These forms were weighed into vials covered with a Kimwipe tissue and stored in an oven at 60° C. and ambient pressure. After three days and ten days of exposure, the solids were analyzed by XRPD to check for form conversion. […].

[8] = Water activity interconversion slurries; details: for water activity at which the form is stable / favored: competitive water activity slurries
Excerpt: The resulting solid phase was characterized by XRPD (Table 16). The experiments establish the physically stable form at various aw.
Water activity is related to relative humidity in that RH %=aw×100. Therefore, it is possible to directly relate the stability of an anhydrous/hydrate system in slurry experiments to solid state stability. Slurry technique at controlled water activities provides an accurate method of rapidly predicting the physically stable form in anhydrous/hydrate systems. This method is particularly valuable when relatively slow kinetics of conversion in the solid state prevents reaching true equilibrium in a reasonable timeframe, since solvent-mediated transformation accelerates the conversion process.

[9] = Competitive slurry experiments
Description: Competitive slurry experiments were also conducted to evaluate form stability of the solid forms of the sodium salt of Compound I. Slurries were prepared by combining Compound I sodium Pattern A, Form B, Pattern C and Pattern D with a solvent, allowing the slurry to equilibrate with stirring at room temperature. The slurries were analyzed at three day and ten day time points, filtered, and analyzed by XRPD (Table 14).

[10] = Stability at elevated temperatures (XRPD, HPLC)
[11] = Physical stability on drying, ambient exposure or heating
[12] = Approximate aqueous solubility of salts/co-crystals (visual, solvent addition method); details: water, thermodynamic from solid, free acid solids retained from filtered aqueous phase, portion rinsed with water, read-out: solubility observed
[13] = listed as Ethylenediamine B + A

O=C(O)c1cc(-c2ccc(OC3CC3)c(Cl)c2)ncn1 [Compound I ethylenediamine Materials A+B, 6-(3-chloro-4-cyclopropoxyphenyl)pyrimidine-4-carboxylic acid]
aqueous solubility (in words) [1]: suitable aqueous solubility | solubility [1, 13]: <10000 µg/mL | Observation (deliquescence) [2]: no deliquescence | Result (XRPD of remaining solids) ([3]; listed as Compound I ethylenediamine A+B): disproportionated | Result (XRPD of remaining solids) [3, 13]: Ethylenediamine B + Free Acid C

O=C(O)c1cc(-c2ccc(OC3CC3)c(Cl)c2)ncn1 [Compound I potassium Material A, 6-(3-chloro-4-cyclopropoxyphenyl)pyrimidine-4-carboxylic acid]
aqueous solubility (in words) [1]: suitable aqueous solubility | solubility ([1]; listed as Potassium A): <4000 µg/mL | Observation (deliquescence) [2]: no deliquescence | Result (XRPD of remaining solids) [3]: converted to a new material | Result (XRPD of remaining solids) ([3]; listed as Potassium A): broad reflections

O=C(O)c1cc(-c2ccc(OC3CC3)c(Cl)c2)ncn1 [Compound I sodium Form B, 6-(3-chloro-4-cyclopropoxyphenyl)pyrimidine-4-carboxylic acid]
aqueous solubility (in words) [1]: desirable aqueous solubility; also recorded: good aqueous solubility | solubility [1]: 4000 µg/mL | Result (XRPD after exposure) ([2]; listed as Sodium B): Sodium B | Observation (deliquescence) [2]: no deliquescence | Result (XRPD of remaining solids) [3]: remained unchanged by XRPD | Result (XRPD of remaining solids) ([3]; listed as Sodium B): Sodium B | solubility ([4]; Methanol, ambient): 6 mg/mL loading | solubility ([4]; Water, ambient): 2 mg/mL loading | solubility ([4]; organic solvent or mixture, thermodynamic from solid, Acetone, 55° C., read-out: Solubility): < 2000 µg/mL | solubility ([4]; organic solvent or mixture, thermodynamic from solid, Acetone, ambient, read-out: Solubility): < 2000 µg/mL | solubility ([4]; organic solvent or mixture, thermodynamic from solid, Acetone/water, 94:6 v/v, 55° C., read-out: Solubility): < 2000 µg/mL | solubility ([4]; organic solvent or mixture, thermodynamic from solid, Acetone/water, 94:6 v/v, ambient, read-out: Solubility): < 2000 µg/mL | solubility ([4]; organic solvent or mixture, thermodynamic from solid, Acetonitrile, 55° C., read-out: Solubility): < 2000 µg/mL | solubility ([4]; organic solvent or mixture, thermodynamic from solid, Acetonitrile, ambient, read-out: Solubility): < 2000 µg/mL | solubility ([4]; organic solvent or mixture, thermodynamic from solid, Acetonitrile/water, 83:17 v/v, ambient, read-out: Solubility): 2000 µg/mL | solubility ([4]; organic solvent or mixture, thermodynamic from solid, Ethanol, 55° C., read-out: Solubility): < 2000 µg/mL | solubility ([4]; organic solvent or mixture, thermodynamic from solid, Ethanol, ambient, read-out: Solubility): < 2000 µg/mL | solubility ([4]; organic solvent or mixture, thermodynamic from solid, Ethanol/water, 88:12 v/v, 55° C., read-out: Solubility): ~2000 µg/mL | solubility ([4]; organic solvent or mixture, thermodynamic from solid, Ethanol/water, 88:12 v/v, ambient, read-out: Solubility): ~2000 µg/mL | solubility ([4]; organic solvent or mixture, thermodynamic from solid, Isopropanol, 55° C., read-out: Solubility): < 2000 µg/mL | solubility ([4]; organic solvent or mixture, thermodynamic from solid, Isopropanol, ambient, read-out: Solubility): < 2000 µg/mL | solubility ([4]; organic solvent or mixture, thermodynamic from solid, Isopropanol/water, 91:9 v/v, 55° C., read-out: Solubility): < 2000 µg/mL | solubility ([4]; organic solvent or mixture, thermodynamic from solid, Isopropanol/water, 91:9 v/v, ambient, read-out: Solubility): < 2000 µg/mL | solubility ([4]; thermodynamic from solid, Water, ambient, read-out: Solubility): ≥ 6000 µg/mL | hygroscopicity by DVS analysis (in words) [5]: hygroscopic | DVS weight loss upon equilibration at about 5% RH ([5]; about 5% RH): about 0.03% | material recovered from the DVS analysis compared with starting material by XRPD ([5]; after DVS): substantially the same as the starting material | DVS weight gain ([5]; from about 5 to about 95% RH): ~5.39% | DVS weight loss ([5]; from about 95% to about 5% RH): ~5.14% | gain observed by DVS analysis ([5]; sorption cycle): ~5 wt % | stability in slurry (in words) ([6]; IPA and acetone): stable for about at least seven days | relative stability of the form (in words) [6]: predominant and most thermodynamically stable form; also recorded: most thermodynamically stable anhydrate form | chemical and physical form changes after storing at elevated temperatures ([7]; about 60° C. and about 78° C.): No chemical and physical form changes were observed | HPLC [7]: >99.9 % AUC | Results (XRPD form) ([8]; 0.33 aw, 16:84 H2O/DMF, 6 days): Form B | Results (XRPD form) ([8]; 0.39 aw, 15:85 H2O/MeOH, 6 days): Form B | Results (XRPD form) ([8]; 0.50 aw, 30:70 H2O/DMF, 6 days): Form B | Results (XRPD form) ([8]; 0.58 aw, 6:94 H2O/Acetone, 6 days): Form B | Results (XRPD form) ([8]; 0.70 aw, 50:50 H2O/DMF, 6 days): Form B | Results (XRPD form) ([8]; 0.86 aw, 70:30 H2O/MeOH, 6 days): Form B | Results (XRPD form) ([8]; 0.91 aw, 50:50 H2O/Acetone, 1 day): Form E | Results (XRPD form) ([8]; 0.98 aw, 90:10 H2O/Acetone, 6 days): Form E | water activity at which the form is stable / favored [8]: ≤ 0.86 aw

O=C(O)c1cc(-c2ccc(OC3CC3)c(Cl)c2)ncn1 [Compound I sodium Form E, 6-(3-chloro-4-cyclopropoxyphenyl)pyrimidine-4-carboxylic acid]
form conversion in competitive slurry ([9]; acetone and water): converted to Compound I sodium Form B | water activity at which the form is stable / favored [8]: ≥ 0.91 aw | Results (XRPD form) ([10]; 65° C., after 20 min and after 50 min): Form B | Results (XRPD form) ([10]; 78° C., 18 days): Form B | Results (XRPD form) ([10]; 205° C., briefly): Form B + peaks | Results (XRPD form) ([10]; under N2: heat to 175° C. then cooled to 150° C., held for 10 minutes): Form B + peaks

O=C(O)c1cc(-c2ccc(OC3CC3)c(Cl)c2)ncn1 [Compound I sodium Pattern D, 6-(3-chloro-4-cyclopropoxyphenyl)pyrimidine-4-carboxylic acid]
form conversion in slurry / trituration ([6]; acetone and/or isopropanol (trituration, single form or competitive slurry)): converted to Compound I sodium Form B | relative stability of the form (in words) [6]: not stable | form conversion in competitive slurry ([9]; water): Compound I sodium Form B | chemical and physical form changes after storing at elevated temperature ([7]; about 60° C.): No chemical and physical form changes were observed | HPLC [7]: >99.9 % AUC

O=C(O)c1cc(-c2ccc(OC3CC3)c(Cl)c2)ncn1 [Compound I sodium Pattern F, 6-(3-chloro-4-cyclopropoxyphenyl)pyrimidine-4-carboxylic acid]
effect of exposure to ambient ([11]; ambient for about 1 day): become disordered

O=C(O)c1cc(-c2ccc(OC3CC3)c(Cl)c2)ncn1 [Compound I sodium amorphous, 6-(3-chloro-4-cyclopropoxyphenyl)pyrimidine-4-carboxylic acid]
form conversion on heating ([11]; heated to about 150° C.): converts to Compound I sodium Form B

O=C(O)c1cc(-c2ccc(OC3CC3)c(Cl)c2)ncn1 [Compound I, 6-(3-chloro-4-cyclopropoxyphenyl)pyrimidine-4-carboxylic acid]
solubility [12]: < 4000 µg/mL
